Laboratory results published in PMC12926979, “Ectopic, hepatic GLP-1R agonism enhances the weight loss efficacy of GLP-1 analogues” (Molecular Metabolism, 2026).

What was measured:
[1] = biological target: T1, hGLP-1R (Homo sapiens, UniProt P43220); conditions: cited from earlier work
T1 construct: expressed in transfected cells
Description: Second, agonism of the ectopic, hepatic GLP-1R creates a novel mechanism of drug clearance and may have effects on biodistribution.

[2] = Pharmacokinetic study in WT DIO mice dosed with control or Glp1r expressing AAV; assay type: in vivo, mouse; conditions: Glp1r AAV treated vs control groups; Figure 2K
Description: Male C57Bl6 mice were randomized and evenly distributed to test groups (n = 8 per group) according to body weight. Animals received tail vein injection of the control AAV or mGLP-1R expressing AAV at a dose of 10^12 GC per mouse on day −7 for each study. […] Treatments were administered via daily SC injection for the duration of the study; dosage is indicated within each figure. Dose escalation regimens for each peptide were determined based on previously published studies. Body weight and food intake was measured every other day throughout the study.

[3] = test system: C57Bl6 mice; assay: Cardiovascular radiotelemetry (heart rate, mean arterial pressure); assay type: in vivo, mouse; conditions: Glp1r AAV treated mice; 0.5, 1 and 3 nmol/kg SC; Figure 2H
Description: Male C57Bl6 mice (8–10 weeks old) were anesthetized with isoflurane and surgically implanted with pressure transmitters (PA-C10, DSI), with the catheter inserted into the left carotid artery and the body of the transmitter between the outer skin layer and abdomen wall in the left flank of the mouse. After recovering, they were singly housed and monitored in their home cages. Mice were given control and experimental AAV virus via tail vein injections at least 7 days prior to CV study. Transmitters were turned on via magnets and SC vehicle injections were administered 2 h after the onset of the light phase for baseline measurements. At t = 24 h, mice were grouped if needed and SC compound injections began. Stressors were allowed only from 9:00 AM to 11:00 AM during the light phase, with continuous sampling throughout the day. Measurements of pulse pressure, arterial pressures, and heart rate values were extracted with the DataQuest A.R.T. 4.1 software and averaged into 3-hour bins for analysis.

T1 sequence (P43220 24-463): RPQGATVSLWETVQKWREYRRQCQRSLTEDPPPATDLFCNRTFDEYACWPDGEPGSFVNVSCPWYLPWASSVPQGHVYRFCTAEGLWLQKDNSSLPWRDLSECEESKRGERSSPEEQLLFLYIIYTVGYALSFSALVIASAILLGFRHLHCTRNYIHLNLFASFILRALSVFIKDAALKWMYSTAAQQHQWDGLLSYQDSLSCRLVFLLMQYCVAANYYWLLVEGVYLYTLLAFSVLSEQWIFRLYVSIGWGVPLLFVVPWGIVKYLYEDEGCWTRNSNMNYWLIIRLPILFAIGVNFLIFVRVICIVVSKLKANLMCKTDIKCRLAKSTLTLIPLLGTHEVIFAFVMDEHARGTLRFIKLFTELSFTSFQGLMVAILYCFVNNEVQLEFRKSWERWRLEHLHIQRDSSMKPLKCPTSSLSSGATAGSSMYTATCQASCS

Molecule | GLP-1R internalization profile [1] | semaglutide clearance with ectopic hepatic GLP-1R [2] | Heart rate effect of semaglutide + Glp1r AAV [3]
tirzepatide | low receptor internalising profile |  | 
CC[C@H](C)[C@H](NC(=O)[C@H](Cc1ccccc1)NC(=O)[C@H](CCC(=O)O)NC(=O)[C@H](CCCCNC(=O)COCCOCCNC(=O)COCCOCCNC(=O)CC[C@H](NC(=O)CCCCCCCCCCCCCCCCC(=O)O)C(=O)O)NC(=O)[C@H](C)NC(=O)[C@H](C)NC(=O)[C@H](CCC(N)=O)NC(=O)CNC(=O)[C@H](CCC(=O)O)NC(=O)[C@H](CC(C)C)NC(=O)[C@H](Cc1ccc(O)cc1)NC(=O)[C@H](CO)NC(=O)[C@H](CO)NC(=O)[C@@H](NC(=O)[C@H](CC(=O)O)NC(=O)[C@H](CO)NC(=O)[C@@H](NC(=O)[C@H](Cc1ccccc1)NC(=O)[C@@H](NC(=O)CNC(=O)[C@H](CCC(=O)O)NC(=O)C(C)(C)NC(=O)[C@@H](N)Cc1cnc[nH]1)[C@@H](C)O)[C@@H](C)O)C(C)C)C(=O)N[C@@H](C)C(=O)N[C@@H](Cc1c[nH]c2ccccc12)C(=O)N[C@@H](CC(C)C)C(=O)N[C@H](C(=O)N[C@@H](CCCNC(=N)N)C(=O)NCC(=O)N[C@@H](CCCNC(=N)N)C(=O)NCC(=O)O)C(C)C [semaglutide] |  | significant increase in semaglutide clearance | reduces this effect
